IC50 data for 35 molecules are collected here from US7902373B2 (Pfizer Inc, priority 2006, dated 2011).

For this experiment, the target named is human recombinant H-PGDS (Homo sapiens, UniProt O60760). Kind of experiment: Fluorescence intensity h-PGDS TBA enzyme assay. The experiment is classed as biochemical. Conditions: Examples up to 622 (and 3a, 3b).

SMILES strings stand for the structures.

Chain of human recombinant H-PGDS (O60760 whole entry): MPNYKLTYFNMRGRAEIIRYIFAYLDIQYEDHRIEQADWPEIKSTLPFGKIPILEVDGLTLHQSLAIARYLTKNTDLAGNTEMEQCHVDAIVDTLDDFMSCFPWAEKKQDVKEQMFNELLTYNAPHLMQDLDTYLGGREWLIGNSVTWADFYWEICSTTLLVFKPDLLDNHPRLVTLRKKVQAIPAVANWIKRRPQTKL

On to `COc1ccc2nccc(CN3CCC(NC(=O)c4ccc(-c5cccc(F)c5)nc4)CC3)c2c1` [Example 471, 6-(3-Fluorophenyl)-N-{1-[(6-methoxyquinolin-4-yl)methyl]piperidin-4-yl}nicotinamide], for which the IC50 is 2.68 nM.
Next, `CC(C)(O)c1ccc(CN2CCC(NC(=O)c3ccc(-c4cccc(F)c4)nc3)CC2)cn1` [Example 472, 6-(3-Fluorophenyl)-N-(1-{[6-(1-hydroxy-1-methylethyl)pyridin-3-yl]methyl}piperidin-4-yl)nicotinamide]: 0.491 nM; `Cn1ccc(-c2ccc(CN3CCC(NC(=O)c4ccc(-c5cccc(F)c5)nc4)CC3)cc2)n1` [Example 473, 6-(3-Fluorophenyl)-N-{1-[4-(1-methyl-1H-pyrazol-3-yl)benzyl]piperidin-4-yl}nicotinamide]: 2.36 nM; `Cn1nccc1-c1ccc(CN2CCC(NC(=O)c3ccc(-c4cccc(F)c4)nc3)CC2)cc1` [Example 474, 6-(3-Fluorophenyl)-N-{1-[4-(1-methyl-1H-pyrazol-5-yl)benzyl]piperidin-4-yl}nicotinamide]: 1.44 nM.
Next, `O=C(NC1CCN(Cc2ccc(Br)cn2)CC1)c1ccc(-c2cccc(F)c2)nc1` [Example 475, N-{1-[(5-Bromopyridin-2-yl)methyl]piperidin-4-yl}-6-(3-fluorophenyl)nicotinamide]: 4.07 nM.
With `O=C(NC1CCN(Cc2ccc(CF)nc2)CC1)c1ccc(-c2cccc(F)c2)nc1` [Example 476, N-(1-{[6-(Fluoromethyl)pyridin-3-yl]methyl}piperidin-4-yl)-6-(3-fluorophenyl)nicotinamide], the IC50 is 0.935 nM.
Next, `Cc1ccc(-c2nc(CN3CCC(NC(=O)c4ccc(-c5cccc(F)c5)nc4)CC3)n(C)n2)nn1` [Example 477, 6-(3-Fluorophenyl)-N-(1-{[1-methyl-3-(6-methylpyridazin-3-yl)-1H-1,2,4-triazol-5-yl]methyl}piperidin-4-yl)nicotinamide]: 4.04 nM; `Cn1nc(-c2ccccn2)nc1CN1CCC(NC(=O)c2ccc(-c3cccc(F)c3)nc2)CC1` [Example 478, 6-(3-Fluorophenyl)-N-{1-[(1-methyl-3-pyridin-2-yl-1H-1,2,4-triazol-5-yl)methyl]piperidin-4-yl}nicotinamide]: 2.01 nM; `Cc1nn(C)c(N2CCCOCC2)c1CN1CCC(NC(=O)c2ccc(-c3cccc(F)c3)nc2)CC1` [Example 479, N-(1-{[1,3-Dimethyl-5-(1,4-oxazepan-4-yl)-1H-pyrazol-4-yl]methyl}piperidin-4-yl)-6-(3-fluorophenyl)nicotinamide]: 0.421 nM.
Next, `Cn1nccc1-c1nc(CN2CCC(NC(=O)c3ccc(-c4cccc(F)c4)nc3)CC2)nn1C` [Example 480, 6-(3-Fluorophenyl)-N-(1-{[1-methyl-5-(1-methyl-1H-pyrazol-5-yl)-1H-1,2,4-triazol-3-yl]methyl}piperidin-4-yl)nicotinamide]: 2.69 nM; `Cn1nc(-c2ncccn2)nc1CN1CCC(NC(=O)c2ccc(-c3cccc(F)c3)nc2)CC1` [Example 481, 6-(3-Fluorophenyl)-N-{1-[(1-methyl-3-pyrimidin-2-yl-1H-1,2,4-triazol-5-yl)methyl]piperidin-4-yl}nicotinamide]: 2.45 nM.
Consider `Cn1nc(CN2CCC(NC(=O)c3ccc(-c4cccc(F)c4)nc3)CC2)nc1-c1ccccc1F` [Example 482, 6-(3-Fluorophenyl)-N-(1-{[5-(2-fluorophenyl)-1-methyl-1H-1,2,4-triazol-3-yl]methyl}piperidin-4-yl)nicotinamide], for which the half-inhibitory concentration (IC50) is 2.39 nM.
As for `Cn1nc(-c2cccc(F)c2)nc1CN1CCC(NC(=O)c2ccc(-c3cccc(F)c3)nc2)CC1` [Example 483, 6-(3-Fluorophenyl)-N-(1-{[3-(3-fluorophenyl)-1-methyl-1H-1,2,4-triazol-5-yl]methyl}piperidin-4-yl)nicotinamide], the figure is 3.58 nM.
As to `Cn1nc(CN2CCC(NC(=O)c3ccc(-c4cccc(F)c4)nc3)CC2)nc1-c1ccc(F)cc1` [Example 484, 6-(3-Fluorophenyl)-N-(1-{[5-(4-fluorophenyl)-1-methyl-1H-1,2,4-triazol-3-yl]methyl}piperidin-4-yl)nicotinamide], the IC50 came to 2.68 nM.
Regarding `Cn1nc(CN2CCC(NC(=O)c3ccc(-c4cccc(F)c4)nc3)CC2)nc1-c1ccccn1` [Example 485, 6-(3-Fluorophenyl)-N-{1-[(1-methyl-5-pyridin-2-yl-1H-1,2,4-triazol-3-yl)methyl]piperidin-4-yl}nicotinamide], the IC50 was found to be 2.77 nM.
Next, `O=C(NC1CCN(Cc2ccc(OC(F)F)c(OC3CC3)c2)CC1)c1ccc(-c2cccc(F)c2)nc1` [Example 486, N-{1-[3-(Cyclopropyloxy)-4-(difluoromethoxy)benzyl]piperidin-4-yl}-6-(3-fluorophenyl)nicotinamide]: 2.32 nM.
For the molecule `COc1c(C)cnc(CN2CCC(NC(=O)c3ccc(-c4cccc(F)c4)nc3)CC2)c1C` [Example 487], the 50% inhibitory concentration (IC50) was found to be 0.372 nM.
In the case of `O=C(NC1CCN(Cc2ccc(-c3ccn[nH]3)cc2)CC1)c1ccc(-c2cccc(F)c2)nc1` [Example 488, 6-(3-Fluorophenyl)-N-{1-[4-(1H-pyrazol-5-yl)benzyl]piperidin-4-yl}nicotinamide], the IC50 was determined as 0.489 nM.
Next, `Nc1ncncc1CN1CCC(NC(=O)c2ccc(-c3cccc(F)c3)nc2)CC1` [Example 489, N-{1-[(4-Aminopyrimidin-5-yl)methyl]piperidin-4-yl}-6-(3-fluorophenyl)nicotinamide]: 1.18 nM; `O=C(NC1CCN(Cc2cccc3c2OCC3)CC1)c1ccc(-c2cccc(F)c2)nc1` [Example 490, N-[1-(2,3-Dihydro-1-benzofuran-7-ylmethyl)piperidin-4-yl]-6-(3-fluorophenyl)nicotinamide]: 0.601 nM.
On to `COc1ccc2nccc(CN3CCC(NC(=O)c4ccc(-c5cccc(F)c5)nc4)CC3)c2n1` [Example 491, 6-(3-Fluorophenyl)-N-{1-[(6-methoxy-1,5-naphthyridin-4-yl)methyl]piperidin-4-yl}nicotinamide], for which the IC50 amounted to 2.4 nM.
As for `O=C(NC1CCN(Cc2ccc(-n3ccnn3)cc2)CC1)c1ccc(-c2cccc(F)c2)nc1` [Example 492, 6-(3-Fluorophenyl)-N-{1-[4-(1H-1,2,3-triazol-1-yl)benzyl]piperidin-4-yl}nicotinamide], the figure is 0.285 nM.
Next, `O=C(NC1CCN(Cc2ccc(-n3nccn3)cc2)CC1)c1ccc(-c2cccc(F)c2)nc1` [Example 493, 6-(3-Fluorophenyl)-N-{1-[4-(2H-1,2,3-triazol-2-yl)benzyl]piperidin-4-yl}nicotinamide]: 1.1 nM; `COc1cc(CN2CCC(NC(=O)c3ccc(-c4cccc(F)c4)nc3)CC2)cc2c1OCCO2` [Example 494, 6-(3-Fluorophenyl)-N-{1-[(8-methoxy-2,3-dihydro-1,4-benzodioxin-6-yl)methyl]piperidin-4-yl}nicotinamide]: 0.817 nM; `Cn1nncc1CN1CCC(NC(=O)c2ccc(-c3cccc(F)c3)nc2)CC1` [Example 495, 6-(3-Fluorophenyl)-N-{1-[(1-methyl-1H-1,2,3-triazol-5-yl)methyl]piperidin-4-yl}nicotinamide]: 0.409 nM.
Next, `COc1cc(CN2CCC(NC(=O)c3ccc(-c4cccc(F)c4)nc3)CC2)ccc1C` [Example 496, 6-(3-Fluorophenyl)-N-[1-(3-methoxy-4-methylbenzyl)piperidin-4-yl]nicotinamide]: 0.569 nM; `O=C1COc2ccc(CN3CCC(NC(=O)c4ccc(-c5cccc(F)c5)nc4)CC3)cc2N1` [Example 497, 6-(3-Fluorophenyl)-N-{1-[(3-oxo-3,4-dihydro-2H-14-benzoxazin-6-yl)methyl]piperidin-4-yl}nicotinamide]: 1.06 nM; `Cn1ncc(CN2CCC(NC(=O)c3ccc(-c4cccc(F)c4)nc3)CC2)c1-c1ccccc1` [Example 498, 6-(3-Fluorophenyl)-N-{1-[(1-methyl-5-phenyl-1H-pyrazol-4-yl)methyl]piperidin-4-yl}nicotinamide]: 0.3 nM.
As to `COc1ccc(-c2c(CN3CCC(NC(=O)c4ccc(-c5cccc(F)c5)nc4)CC3)cnn2C)cc1` [Example 499, 6-(3-Fluorophenyl)-N-(1-{[5-(4-methoxyphenyl)-1-methyl-1H-pyrazol-4-yl]methyl}piperidin-4-yl)nicotinamide], the IC50 was determined as 1.64 nM.
As for `Cn1ncc(CN2CCC(NC(=O)c3ccc(-c4cccc(F)c4)nc3)CC2)c1-c1ccc(F)cc1` [Example 500, 6-(3-Fluorophenyl)-N-(1-{[5-(4-fluorophenyl)-1-methyl-1H-pyrazol-4-yl]methyl}piperidin-4-yl)nicotinamide], the figure is 0.633 nM.
Next, `CS(=O)(=O)Nc1cccc(CN2CCC(NC(=O)c3ccc(-c4cccc(F)c4)nc3)CC2)c1` [Example 501, 6-(3-Fluorophenyl)-N-(1-{3-[(methylsulfonyl)amino]benzyl}piperidin-4-yl)nicotinamide]: 0.432 nM; `O=C(NC1CCN(Cc2ccc3cc[nH]c3c2)CC1)c1ccc(-c2cccc(F)c2)nc1` [Example 502, 6-(3-Fluorophenyl)-N-[1-(1H-indol-6-ylmethyl)piperidin-4-yl]nicotinamide]: 1.99 nM.
As for `Cc1ccc(CN2CCC(NC(=O)c3ccc(-c4cccc(F)c4)nc3)CC2)c(F)c1` [Example 503, N-[1-(2-Fluoro-4-methylbenzyl)piperidin-4-yl]-6-(3-fluorophenyl)nicotinamide], the IC50 came to 2.7 nM.
As for `Cc1cc(C)n2nc(CN3CCC(NC(=O)c4ccc(-c5cccc(F)c5)nc4)CC3)nc2n1` [Example 504, N-{1-[(5,7-Dimethyl[1,2,4]triazolo[1,5-a]pyrimidin-2-yl)methyl]piperidin-4-yl}-6-(3-fluorophenyl)nicotinamide], the figure is 2.84 nM; as for `CC1(CN2CCC(NC(=O)c3ccc(-c4cccc(F)c4)nc3)CC2)CC1` [Example 505, 6-(3-Fluorophenyl)-N-{1-[(1-methylcyclopropyl)methyl]piperidin-4-yl}nicotinamide], 0.418 nM.
